From US11051515B2, “3-acyl-benzamides and their use as herbicides” (Bayer Aktiengesellschaft, priority 2017, dated 2021)

Tests used:
[1] = test system: ALOMY; assay: Pre-emergence action against ALOMY; type: in vivo, Alopecurus myosuroides; settings: dosage 320 g/ha, pre-emergence, scored visually after 3 weeks vs untreated controls, 100% = plants have died, 0% = like control plants
In short: (§1)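 Seeds sown in sandy loam in wood-fiber pots and covered with soil. Greenhouse growth; visual damage scored after 3 weeks versus untreated controls (100% = dead, 0% = like control).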

[2] = test system: AVEFA; assay: Pre-emergence action against AVEFA; type: in vivo, Avena fatua; settings: dosage 320 g/ha, scored visually after 3 weeks vs untreated controls
In short: as §1

[3] = test system: CYPES; assay: Pre-emergence action against CYPES; type: in vivo, Cyperus esculentus; settings: pre-emergence, dosage 320 g/ha, scored visually after 3 weeks vs untreated controls
In short: as §1

[4] = test system: ECHCG; assay: Pre-emergence action against ECHCG; type: in vivo, Echinochloa crus-galli; settings: pre-emergence, dosage 320 g/ha, scored visually after 3 weeks vs untreated controls
In short: as §1

[5] = test system: LOLMU; assay: Pre-emergence action against LOLMU; type: in vivo, Lolium multiflorum; settings: dosage 320 g/ha, scored visually after 3 weeks vs untreated controls
Source text: Seeds of monocotyledonous and dicotyledonous weed plants and crop plants are laid out in sandy loam soil in wood-fiber pots and covered with soil. The compounds of the invention, formulated in the form of wettable powders (WP) or as emulsion concentrates (EC), are then applied to the surface of the covering soil in the form of an aqueous suspension or emulsion at a water application rate equating to […], with addition of 0.2% wetting agent. After the treatment, the pots are placed in a greenhouse and kept under good growth conditions for the trial plants. The damage to the test plants is scored visually after a test period of 3 weeks by comparison with untreated controls (herbicidal activity in percent (%): 100% activity=the plants have died, 0% activity=like control plants).

[6] = test system: SETVI; assay: Pre-emergence action against SETVI; type: in vivo, Setaria viridis; settings: pre-emergence, dosage 320 g/ha, scored visually after 3 weeks vs untreated controls
In short: as §1

[7] = test system: ABUTH; assay: Pre-emergence action against ABUTH; type: in vivo, Abutilon theophrasti; settings: pre-emergence, dosage 320 g/ha, scored visually after 3 weeks vs untreated controls
In short: as §1

[8] = test system: AMARE; assay: Pre-emergence action against AMARE; type: in vivo, Amaranthus retroflexus; settings: pre-emergence, dosage 320 g/ha, scored visually after 3 weeks vs untreated controls
In short: as §1

[9] = test system: MATIN; assay: Pre-emergence action against MATIN; type: in vivo, Matricaria inodora; settings: Dosage 320 g/ha, pre-emergence
In short: as §1

[10] = test system: PHBPU; assay: Pre-emergence action against PHBPU; type: in vivo, Pharbitis purpurea; settings: Dosage 320 g/ha, pre-emergence
In short: as §1

[11] = test system: POLCO; assay: Pre-emergence action against POLCO; type: in vivo, Polygonum convolvulus; settings: Dosage 320 g/ha, pre-emergence
In short: as §1

[12] = test system: STEME; assay: Pre-emergence action against STEME; type: in vivo, Stellaria media; settings: Dosage 320 g/ha, pre-emergence
In short: as §1

[13] = test system: VIOTR; assay: Pre-emergence action against VIOTR; type: in vivo, Viola tricolor; settings: Dosage 320 g/ha, pre-emergence
In short: as §1

[14] = test system: VERPE; assay: Pre-emergence action against VERPE; type: in vivo, Veronica persica; settings: Dosage 320 g/ha, pre-emergence
In short: as §1

[15] = test system: CYPES; assay: Post-emergence action against CYPES; type: in vivo, Cyperus esculentus; settings: post-emergence, dosage 80 g/ha, visual assessment about 3 weeks after treatment vs untreated controls
In short: (§2)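 Weeds grown in sandy loam in greenhouse, treated at one-leaf stage (2–3 weeks after sowing) with WP or EC formulations sprayed as aqueous suspension/emulsion at 600 to […] water with 0.2% wetting agent. Visual rating after about 3 weeks versus untreated controls, as % herbicidal action (100% = plants dead, 0% = like control).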

[16] = test system: ECHCG; assay: Post-emergence action against ECHCG; type: in vivo, Echinochloa crus-galli; settings: post-emergence, dosage 80 g/ha, visual assessment about 3 weeks after treatment vs untreated controls
In short: as §2

[17] = test system: SETVI; assay: Post-emergence action against SETVI; type: in vivo, Setaria viridis; settings: post-emergence, dosage 80 g/ha, visual assessment about 3 weeks after treatment vs untreated controls
In short: as §2

[18] = test system: ABUTH; assay: Post-emergence action against ABUTH; type: in vivo, Abutilon theophrasti; settings: post-emergence, dosage 80 g/ha, visual assessment about 3 weeks after treatment vs untreated controls
In short: as §2

[19] = test system: AMARE; assay: Post-emergence action against AMARE; type: in vivo, Amaranthus retroflexus; settings: post-emergence, dosage 80 g/ha, visual assessment about 3 weeks after treatment vs untreated controls
In short: as §2

[20] = test system: MATIN; assay: Post-emergence action against MATIN; type: in vivo, Matricaria inodora; settings: post-emergence, dosage 80 g/ha, visual assessment about 3 weeks after treatment vs untreated controls
In short: as §2

[21] = test system: PHBPU; assay: Post-emergence action against PHBPU; type: in vivo, Pharbitis purpurea; settings: post-emergence, dosage 80 g/ha
In short: as §2

[22] = test system: POLCO; assay: Post-emergence action against POLCO; type: in vivo, Polygonum convolvulus; settings: post-emergence, dosage 80 g/ha
In short: as §2

[23] = test system: STEME; assay: Post-emergence action against STEME; type: in vivo, Stellaria media; settings: post-emergence, dosage 80 g/ha
In short: as §2

[24] = test system: VIOTR; assay: Post-emergence action against VIOTR; type: in vivo, Viola tricolor; settings: post-emergence, dosage 80 g/ha
In short: as §2

[25] = test system: VERPE; assay: Post-emergence action against VERPE; type: in vivo, Veronica persica; settings: dosage 80 g/ha
In short: as §2

[26] = test system: ALOMY; assay: Post-emergence action against ALOMY; type: in vivo, Alopecurus myosuroides; settings: Dosage 80 g/ha, post-emergence
In short: as §2

[27] = test system: AVEFA; assay: Post-emergence action against AVEFA; type: in vivo, Avena fatua; settings: post-emergence, dosage 80 g/ha, visual assessment about 3 weeks after treatment vs untreated controls
In short: as §2

CCn1nnnc1NC(=O)c1ccc(C(F)(F)F)c(C(C)=O)c1SC [2-58]
80%: Pre-emergence action against PHBPU [10]
100: Post-emergence action against PHBPU [21] | Post-emergence action against STEME [23] | Post-emergence action against VIOTR [24] | Post-emergence action against VERPE [25]
90%: Pre-emergence action against AVEFA (herbicidal activity) [2] | Pre-emergence action against LOLMU (herbicidal activity) [5] | Pre-emergence action against STEME [12] | Post-emergence action against CYPES (herbicidal action in percent) [15] | Post-emergence action against ECHCG (herbicidal action in percent) [16]
90: Post-emergence action against POLCO [22]
100%: Pre-emergence action against ALOMY (herbicidal activity in percent) [1] | Pre-emergence action against CYPES (herbicidal activity) [3] | Pre-emergence action against ECHCG (herbicidal activity) [4] | SETVI (Table B8, pre-emergence herbicidal activity) [6] | Pre-emergence action against ABUTH (herbicidal activity) [7] | Pre-emergence action against AMARE (herbicidal activity) [8] | Pre-emergence action against MATIN [9] | Pre-emergence action against POLCO [11] | Pre-emergence action against VIOTR [13] | Pre-emergence action against VERPE [14] | Post-emergence action against SETVI (herbicidal action in percent) [17] | Post-emergence action against ABUTH (herbicidal action in percent) [18] | Post-emergence action against AMARE (herbicidal action in percent) [19] | Post-emergence action against MATIN (herbicidal action in percent) [20]

CCn1nnnc1NC(=O)c1ccc(SC)c(C(=O)C2CC2)c1Cl [2-123]
100%: Pre-emergence action against ALOMY (herbicidal activity in percent) [1] | Pre-emergence action against ECHCG (herbicidal activity) [4] | SETVI (Table B8, pre-emergence herbicidal activity) [6] | Pre-emergence action against ABUTH (herbicidal activity) [7] | Pre-emergence action against AMARE (herbicidal activity) [8] | Pre-emergence action against MATIN [9] | Pre-emergence action against STEME [12] | Pre-emergence action against VIOTR [13] | Pre-emergence action against VERPE [14] | Post-emergence action against AVEFA (herbicidal action in percent) [27] | Post-emergence action against ECHCG (herbicidal action in percent) [16] | Post-emergence action against SETVI (herbicidal action in percent) [17] | Post-emergence action against ABUTH (herbicidal action in percent) [18] | Post-emergence action against AMARE (herbicidal action in percent) [19] | Post-emergence action against MATIN (herbicidal action in percent) [20]
100: Post-emergence action against PHBPU [21] | Post-emergence action against STEME [23] | Post-emergence action against VIOTR [24] | Post-emergence action against VERPE [25]
80%: Pre-emergence action against AVEFA (herbicidal activity) [2]
90%: Pre-emergence action against CYPES (herbicidal activity) [3] | Pre-emergence action against LOLMU (herbicidal activity) [5] | Post-emergence action against ALOMY [26]

CCn1nnnc1NC(=O)c1ccc(C(F)(F)F)c(C(C)=O)c1Cl [2-137, 3-acetyl-2-chloro-N-(1-ethyl-1H-tetrazol-5-yl)-4-(trifluoromethyl)benzamide]
80%: pest or weed control at 320 g/ha ([5]; Lolium multiflorum, 504 h, read-out: Pre-emergence action against LOLMU (herbicidal activity))
100%: pest or weed control at 320 g/ha ([3]; Cyperus esculentus, 504 h, read-out: Pre-emergence action against CYPES (herbicidal activity)) | pest or weed control at 320 g/ha ([4]; Echinochloa crus-galli, 504 h, read-out: Pre-emergence action against ECHCG (herbicidal activity)) | pest or weed control at 320 g/ha ([6]; Setaria viridis, 504 h, read-out: SETVI (Table B8, pre-emergence herbicidal activity)) | pest or weed control at 320 g/ha ([7]; Abutilon theophrasti, 504 h, read-out: Pre-emergence action against ABUTH (herbicidal activity)) | pest or weed control at 320 g/ha ([8]; Amaranthus retroflexus, 504 h, read-out: Pre-emergence action against AMARE (herbicidal activity)) | pest or weed control at 320 g/ha ([9]; Tripleurospermum inodorum, 504 h) | pest or weed control at 320 g/ha ([13]; Viola tricolor, 504 h) | pest or weed control at 80 g/ha ([17]; Setaria viridis, 504 h, read-out: Post-emergence action against SETVI (herbicidal action in percent)) | pest or weed control at 80 g/ha ([19]; Amaranthus retroflexus, 504 h, read-out: Post-emergence action against AMARE (herbicidal action in percent)) | pest or weed control at 80 g/ha ([20]; Tripleurospermum inodorum, 504 h, read-out: Post-emergence action against MATIN (herbicidal action in percent)) | pest or weed control at 80 g/ha ([23]; Stellaria media, 504 h) | pest or weed control at 80 g/ha ([24]; Viola tricolor, 504 h)
90%: pest or weed control at 320 g/ha ([1]; Alopecurus myosuroides, 504 h, read-out: Pre-emergence action against ALOMY (herbicidal activity in percent)) | pest or weed control at 320 g/ha ([2]; Avena fatua, 504 h, read-out: Pre-emergence action against AVEFA (herbicidal activity)) | pest or weed control at 320 g/ha ([11]; Fallopia convolvulus, 504 h) | pest or weed control at 320 g/ha ([12]; Stellaria media, 504 h) | pest or weed control at 320 g/ha ([14]; Veronica persica, 504 h) | pest or weed control at 80 g/ha ([15]; Cyperus esculentus, 504 h, read-out: Post-emergence action against CYPES (herbicidal action in percent)) | pest or weed control at 80 g/ha ([16]; Echinochloa crus-galli, 504 h, read-out: Post-emergence action against ECHCG (herbicidal action in percent)) | pest or weed control at 80 g/ha ([18]; Abutilon theophrasti, 504 h, read-out: Post-emergence action against ABUTH (herbicidal action in percent)) | pest or weed control at 80 g/ha ([21]; Ipomoea purpurea, 504 h) | pest or weed control at 80 g/ha ([22]; Fallopia convolvulus, 504 h) | pest or weed control at 80 g/ha ([25]; Veronica persica, 504 h)

CCn1nnnc1NC(=O)c1ccc(C(F)(F)F)c(C(C)=O)c1Br [2-195]
90%: Pre-emergence action against ALOMY (herbicidal activity in percent) [1] | Pre-emergence action against AVEFA (herbicidal activity) [2] | Pre-emergence action against POLCO [11] | Post-emergence action against CYPES (herbicidal action in percent) [15] | Post-emergence action against ECHCG (herbicidal action in percent) [16] | Post-emergence action against SETVI (herbicidal action in percent) [17] | Post-emergence action against MATIN (herbicidal action in percent) [20]
80%: Pre-emergence action against LOLMU (herbicidal activity) [5] | Pre-emergence action against PHBPU [10] | Post-emergence action against ABUTH (herbicidal action in percent) [18]
100%: Pre-emergence action against CYPES (herbicidal activity) [3] | Pre-emergence action against ECHCG (herbicidal activity) [4] | SETVI (Table B8, pre-emergence herbicidal activity) [6] | Pre-emergence action against ABUTH (herbicidal activity) [7] | Pre-emergence action against AMARE (herbicidal activity) [8] | Pre-emergence action against MATIN [9] | Pre-emergence action against STEME [12] | Pre-emergence action against VIOTR [13] | Pre-emergence action against VERPE [14]
100: Post-emergence action against VIOTR [24]
90: Post-emergence action against PHBPU [21] | Post-emergence action against POLCO [22] | Post-emergence action against STEME [23]
